Measurements taken from patent US20040076659A1, “Additive for livestock feeds” (priority 1994, published 2004).

Tests used:
dairy cows = experiment: Tween 80 in total mixed ration, dairy herd trial (Example 4); type: in vivo, Holsteins
Description: One hundred and twenty cows and heifers in a dairy herd of Holsteins were divided into three treatment groups of 40 animals per group. All animals were given ad libitum access to a total mixed ration (TMR) based on grass silage, corn silage, grass hay, barley and canola meal. The treatments imposed were: Treatment 1—TMR without additive (Control). Treatment 2—TMR formulated to contain 0.2% (wt/wt) Tween 80+0.1% enzyme preparation (wt/wt). Treatment 3—TMR formulated to contain 0.2% (wt/wt) Tween 80. The Tween 80 was coated onto silica to form a product containing 50% Tween 80 and 50% silica. The enzyme preparation was obtained from Lucta S. A. (Barcelona, Spain). The preparation had the following activities: β-glucanase 263.0, xylanase 75.1 and amylase 542.6. Activities were expressed as nmol of reducing sugars released per mg of enzyme in 1 min at 0.83 mg/ml enzyme concentration. The trial lasted 13 weeks. Animals received their respective dietary treatments for 12 weeks. Milk production and feed intake were monitored until the 13th week (1 week after animals had been removed from dietary treatments). Feed (TMR) offered to each group was weighed and recorded at each feeding. Each group was fed to provide a weighback of 5%. Samples of the feed offered and refused were taken daily, composited into weekly samples and dried at 55° C. for 72 hr to determine dry matter (DM) content. Daily (AM and PM) milk production by each cow was recorded. Animals were weighed two days in a row immediately after milking on a monthly basis. Milk samples were taken for compositional analyses (fat, protein, and somatic cells) in the week preceding the trial, and then during the trial at 4 week intervals. Samples were taken from both the AM and the PM milkings and analyzed individually.

rumen cellulase activity = experiment: In vitro cellulose degradation by rumen bacterial inoculum; type: biochemical, cows; conditions: 0.25% surfactant in reaction mixture; regression on initial 24 hr
Method: A bacterial fraction, largely free of protozoa, was prepared for the fermentation assays by using the procedure of Forsberg, “Some Effects of Arsenic on the Rumen Microflora; An In Vitro Study,” Can. J. Microbiol. 24:36 (1978). The digesta inoculum was resuspended and washed twice in an equivalent amount of 0.1 M phosphate buffer pH 6.8 to the rumen fluid. The inoculum provided both, the substrate and the enzyme used for cellulose degradation assay. Incubation periods were 0, 1.5, 3, 6, 12, 24, and 48 hr. Other incubation conditions were similar to those outlined in experiment 1 above. However, cellulose was determined by the method of Updergraff, supra, for the in vivo digestibility trial. The optimal level of Tween 80 obtained was adopted here and followed.

[1] = In vitro true digestibility (IVTD) of orchardgrass hay, Ankom in vitro system, 22 h
Method: The carriers were celite (Fisher Scientific Co. New Jersey, USA), diatomaceous earth (Sigma Chemical Co. St. Louis, Mo.) and LuctaCarrier (Lucta, S. A. Barcelona, Spain). Tween 80 was mixed with the carriers such that the resulting mixture contained 50% Tween 80 (wt/wt). The ability of Tween 80 in these mixtures to improve digestive efficiency was evaluated in vitro with orchardgrass hay that had been ground to pass through a 1 mm screen. Treatments included 0 (control), 0.1 and 0.2% liquid Tween 80, 0.1 and 0.2% Tween 80 in diatomaceous earth, 0.1 and 0.2% Tween 80 in celite, and 0.1 and 0.2% Tween 80 in LuctaCarrier. Appropriate quantities of each substrate were mixed with the additives and incubated in the Ankom in vitro system (Ankom Technology Fairport NY) for 22 h.

Red Angus steers = experiment: Performance of feedlot cattle, 119 days (Example 6); type: in vivo
Method: Three hundred and twenty six Red Angus steers were stratified by weight and divided into eight pens. The pens were then randomly assigned to one of the following four dietary treatments:
3) 0.2% (wt/wt) glycanase enzyme (enzyme)
The enzyme is marketed by GNC Bioferm Inc., Saskatoon, SK. The product contained the following activities (expressed as nmol of reducing sugars released from 1 mg of product per min: xylanase (336.6), β-glucanase (196.0), carboxymethylcellulase (44.4), and amylase (46.3). The basal diet was a total mixed ration consisting of rolled barley, corn silage and canola meal. Tween 80 was diluted with tap water (1 in 5) before it was applied. The total amount of feed required each day for the animals on each treatment was weighed separately in a mixer wagon and the appropriate quantity of Tween 80, enzyme, or their combination applied to it and mixed for ten minutes before feeding. An equal volume of water as applied to the Tween 80 treatment was also applied to the control and enzyme treatment to make the moisture content of the four experimental diets equal. The experimental diets were fed for a total of 119 days. Individual body weights were taken at the beginning and end of the experiment. Group body weights were taken at monthly intervals.

Initial rate of cellulose degradation (rumen cellulase activity): 1.04c (0.32) μg/ml/hr
Substance: polyoxyethylene sorbitan monoleate [Tween 80]
More milk per cow than control over the 12-week period (dairy cows; 0.2% Tween 80 (with or without 0.1% enzyme)): 64 kg | Average increase in milk production over control (dairy cows; all cows lactating at least 3 weeks before start, 0.2% Tween 80 (with or without 0.1% enzyme)): 0.76 kg/cow/day | Milk produced (kg) per kg of feed consumed (dairy cows; feed conversion efficiency): 1.48 kg per kg of feed | More milk than control (dairy cows; fresh cows, after the 4th week of lactation): approximately 4 kg more milk/cow/day | More milk than a cow on Tween 80 plus enzyme over 12 weeks (dairy cows; mature cow, 0.2% Tween 80): 74 kg | More milk than a cow on the control diet over 12 weeks (dairy cows; mature cow, 0.2% Tween 80): 110 kg | Average increase in milk production (dairy cows; mature cows, 0.2% Tween 80): 1.31 kg/day | In vitro true digestibility (IVTD) ([1]; 0.1% Tween 80): 54.20% | In vitro true digestibility (IVTD) ([1]; 0.2% Tween 80): 54.93% | Average Daily Gain (Red Angus steers; 0.1% Tween 80): 1.69a kg/d | Average daily gain higher than control (Red Angus steers; 0.1% Tween 80): 6.3% | Feed Efficiency (Gain/Feed) (Red Angus steers; 0.1% Tween 80): 0.166 | More weight gained than animals on the control diet (Red Angus steers; 0.1% Tween 80): approximately 5.8% | Total Weight Gain (Red Angus steers; 0.1% Tween 80 (dry matter basis)): 219.03a kg
